# Measurements published in patent US20070275425A1, “Device and method for analysis of a metabolic malady” (priority 2004, published 2007).
# Legend:
# [1] = system: lipid bodies in neutrophil cells of ZDF rats; test: Lipid bodies per neutrophil cell of leukocyte samples (SEM) from obese ZDF rats treated with anti-diabetic drug; type: in vivo, rat; details: 10 mg/kg oral gavage five times a week for 20 days
# Protocol: (§1) Whole blood samples were obtained from a group of four obese ZDF rats treated with an anti-diabetic drug, Rosiglitazone (10 mg/kg), administered by oral gavage five times a week for 20 days and a group of four untreated obese ZDF rats induced with a saline solution administered by oral gavage five times a week for 20 days.
# A whole blood sample was collected in tubes including a solution of heparin. One hour after drawing the whole blood sample from each rat, approximately 75 microliters of whole blood was mixed with 600 microliters of ddH2O and incubated at a temperature of approximately 25° C. for approximately 30 seconds. Then 75 microliters of 10×PBS was added.
# Following incubation, the sample was centrifuged at a speed of approximately 1200 rpm for approximately five minutes. Thereafter, resulting supernatant was removed from the leukocyte sample. Approximately 400 microliters of PBS including 0.89 mM calcium and 0.49 mM magnesium was added to the leukocyte sample. The sample was centrifuged again at a speed of approximately 1200 rpm for approximately five minutes. Thereafter, resulting supernatant was removed from the leukocyte sample. Approximately 400 microliters of PBS including 0.89 mM calcium and 0.49 mM magnesium was added to the leukocyte sample. […]
# [2] = Fasting glucose test of treated ZDF rats; type: in vivo, rat; details: obese ZDF rats, 10 mg/kg oral gavage five times a week for 20 days; untreated group 242.25 (SD 14.58); treated SD 14.29
# Protocol: as §1
# The values of the average number of lipid bodies and average lipid body area correspond to results of a fasting glucose test of the untreated and treated subjects.
structure (smiles),measurement,setting,value
CN(CCOc1ccc(CC2SC(=O)NC2=O)cc1)c1ccccn1 (stereo not drawn) [Rosiglitazone],average lipid body area per neutrophil cell of a leukocyte sample,"[1]; untreated group 1.04 (SD 0.1), treated SD 0.06",approximately 0.65 μm^2
same,average number of lipid bodies per neutrophil cell of a leukocyte sample,"[1]; untreated group 7.03 (SD 0.83), treated SD 0.24",approximately 4.09
same,fasting glucose,[2],110.13 mg/dL
